Each structure is given as a SMILES string. Where a name gives a salt, the structure may show the parent alone. Read-outs that look alike come from different tables or passages of the source.

The source of these data is publication PMC8286840, “Identifying SARS-CoV-2 antiviral compounds by screening for small molecule inhibitors of Nsp3 papain-like protease” (Biochemical Journal, 2021).

For assay [1], the target named is T1, SARS-CoV-2 PLpro (nsp3 1564–1878) (Severe acute respiratory syndrome coronavirus 2, UniProt P0DTD1). Kind of assay: biochemical. More on the design: FRET-quenched peptide (Pro3) cleavage by PLpro, 10 min pre-incubation, slope over 20 min, normalised to no-compound control. The settings on record: low concentration screen, read-out: % of control remaining.
For assay [2], the target named is T1, SARS-CoV-2 PLpro (nsp3 1564–1878). In words: biochemical. Further details: FRET-quenched peptide (Pro3) cleavage by PLpro, 10 min pre-incubation, slope over 20 min, normalised to no-compound control. The settings on record: high concentration screen, read-out: % of control remaining.

Take `COC(=O)C(C)(N)Cc1ccc(O)cc1` (racemic) [alpha-Methyl-DL-tyrosine methyl ester hydrochloride]: in assay [1] (Well no.=1068), the remaining activity at 1.25 µM was determined as 97%. Also, the remaining activity at 3.75 µM in assay [2] (Well no.=1068) is 96.5%.
Consider `CCCCCCCCCCCCCCCC(=O)NCC(COP(=O)([O-])OCC[N+](C)(C)C)OCC` (racemic) [rac-2-Ethoxy-3-hexadecanamido-1-propylphosphocholine], for which the remaining activity at 1.25 µM in assay [1] (Well no.=747) was determined as 93.3%. Also, the remaining activity at 3.75 µM in assay [2] (Well no.=747) came to 94.6%.
Consider `CCCCCCCCCCCCCCCCCC(=O)NCC(COP(=O)([O-])OCC[N+](C)(C)C)OCC` (racemic) [rac-2-Ethoxy-3-octadecanamido-1-propylphosphocholine], for which the remaining activity at 1.25 µM in assay [1] (Well no.=413) is 102%. Besides, the remaining activity at 3.75 µM in assay [2] (Well no.=413) stood at 101%.
In the case of `CCCCCCCCCCCCCCCC(=O)NCC(COP(=O)([O-])OCC[N+](C)(C)C)OC` (racemic) [rac-2-Methoxy-3-hexadecanamido-1-propylphosphocholine], in assay [1] (Well no.=1078), the remaining activity at 1.25 µM was 97.5%. Also, in assay [2] (Well no.=1078), the remaining activity at 3.75 µM turned out to be 96.5%.
For `CCCCCCCCCCCCCCCCCC(=O)NCC(COP(=O)([O-])OCC[N+](C)(C)C)OC` (racemic) [rac-2-Methoxy-3-octadecanamido-1-propylphosphocholine], in assay [1] (Well no.=1126), the remaining activity at 1.25 µM came out at 96.3%. In assay [2] (Well no.=1126), the remaining activity at 3.75 µM was 96.8%.
Consider `CCCN(CCc1cccs1)C1CCc2c(O)cccc2C1` (racemic) [rac-Rotigotine (Hydrochloride)], for which the remaining activity at 1.25 µM in assay [1] (Well no.=6809) was 98.8%. Also, the remaining activity at 3.75 µM in assay [2] (Well no.=6809) amounted to 95.7%.
Turning to `O=C(O)[C@@H]1C[C@@H](C(=O)O)N1` (relative stereo) [trans-Azetidine-2,4-dicarboxylic acid], the remaining activity at 1.25 µM in assay [1] (Well no.=68) turned out to be 104%. Moreover, the remaining activity at 3.75 µM in assay [2] (Well no.=68) amounted to 103%.
In the case of `CN(C)CCC(c1ccc(Br)cc1)c1ccccn1` (single isomer, unassigned; (+)) [(+)-Brompheniramine maleate], the remaining activity at 1.25 µM in assay [1] (Well no.=365) was found to be 98.9%. Besides, in assay [2] (Well no.=365), the remaining activity at 3.75 µM was 98.5%.
Turning to `CN(C)CCC(c1ccc(Cl)cc1)c1ccccn1` (single isomer, unassigned; (+)) [(+)-Chlorpheniramine maleate], the remaining activity at 1.25 µM in assay [1] (Well no.=130) was 105%. Moreover, in assay [2] (Well no.=130), the remaining activity at 3.75 µM was determined as 105%.
Regarding `COc1ccc2c3c1O[C@H]1C(=O)CC[C@@]4(O)C(C2)N(CC2CC2)CCC314` (single isomer, unassigned; (-)) [(-)-3-Methoxynaltrexone hydrochloride], the remaining activity at 1.25 µM in assay [1] (Well no.=947) turned out to be 98.1%. Besides, in assay [2] (Well no.=947), the remaining activity at 3.75 µM turned out to be 97%.
`CN1CCCC1c1cccnc1` (single isomer, unassigned; (-)) [(-)-Nicotine hydrogen tartrate salt]: the remaining activity at 1.25 µM in assay [1] (Well no.=809) was 95.3%. Besides, the remaining activity at 3.75 µM in assay [2] (Well no.=809) was 92.5%.
With `C[N+]1(C)C2CC(OC(=O)[C@H](CO)c3ccccc3)CC1C1OC12` (single isomer, unassigned; (-)) [(-)-Scopolamine methyl nitrate], the remaining activity at 1.25 µM in assay [1] (Well no.=1454) came out at 93.9%. In addition, the remaining activity at 3.75 µM in assay [2] (Well no.=1454) came to 96.6%.
For the molecule `CC(N)[C@H](O)c1ccc(O)c(O)c1` (single isomer, unassigned; (-)) [(-)-alpha-Methylnorepinephrine], the remaining activity at 1.25 µM in assay [1] (Well no.=547) was found to be 102%. Besides, the remaining activity at 3.75 µM in assay [2] (Well no.=547) worked out at 103%.
As to `CN1c2ccccc2C(=O)N2CCc3c([nH]c4ccccc34)C21` (stereo in doubt) [Evodiamine], the remaining activity at 1.25 µM in assay [1] (Well no.=3809) was 95.1%. Besides, the remaining activity at 3.75 µM in assay [2] (Well no.=3809) came to 98.5%.
As for `Cc1ccc(S(=O)(=O)NC(=O)NN2CC3CCC[C@@H]3C2)cc1` (stereo in doubt) [Gliclazide], the remaining activity at 1.25 µM in assay [1] (Well no.=2176) was 101%. In assay [2] (Well no.=2176), the remaining activity at 3.75 µM is 102%.
For the molecule `CC(N)=NCCCCC(N)C(=O)O` (stereo in doubt) [L-N6-(1-Iminoethyl)lysine hydrochloride], the remaining activity at 1.25 µM in assay [1] (Well no.=871) is 107%. In addition, the remaining activity at 3.75 µM in assay [2] (Well no.=871) was 102%.
Regarding `Nc1ncnc2c1c(-c1cccc(OCc3ccccc3)c1)cn2C1CC(CN2CCCC2)C1` (stereo in doubt) [NVP-ADW742], in assay [1] (Well no.=4629), the remaining activity at 1.25 µM was determined as 95.7%. Moreover, the remaining activity at 3.75 µM in assay [2] (Well no.=4629) amounted to 93.2%.
`CC[C@@H](C)C(=O)O[C@H]1[C@H](O)[C@H]2[C@@H](CN3C[C@@H](C)CC[C@H]3[C@@]2(C)O)[C@@H]2C[C@]34O[C@]5(O)[C@@H](OC(=O)[C@](C)(O)[C@@H](C)O)CC[C@@]3(C)[C@@H]5[C@@H](OC(C)=O)[C@@H](OC(C)=O)[C@H]4[C@@]21O` (stereo in doubt) [Protoveratrine B]: the remaining activity at 1.25 µM in assay [1] (Well no.=3454) was found to be 97.9%. In assay [2] (Well no.=3454), the remaining activity at 3.75 µM came to 98.3%.
Consider `CCCCC1(C2CCCC2)Cc2cc(OCC(=O)O)c(Cl)c(Cl)c2C1=O` (stereo in doubt) [R(+)-Butylindazone], for which the remaining activity at 1.25 µM in assay [1] (Well no.=640) was 97.4%. Also, the remaining activity at 3.75 µM in assay [2] (Well no.=640) was determined as 101%.
Regarding `COc1cc(C=CC(=O)O)cc(OC)c1O` (stereo in doubt) [Sinapinic acid], the remaining activity at 1.25 µM in assay [1] (Well no.=6150) was 102%. In addition, the remaining activity at 3.75 µM in assay [2] (Well no.=6150) is 102%.
As for `NCC=CC(=O)O` (stereo in doubt) [cis-4-Aminocrotonic acid], the remaining activity at 1.25 µM in assay [1] (Well no.=114) turned out to be 97.3%. Also, the remaining activity at 3.75 µM in assay [2] (Well no.=114) was found to be 98.2%.
On to `CC(C)(CN1C(=O)C(Cl)=C(Cl)C1=O)CN1C(=O)C(Cl)=C(Cl)C1=O` [1,1'-(2,2-dimethylpropane-1,3-diyl)bis(3,4-dichloro-1H-pyrrole-2,5-dione)], for which, in assay [1] (Well no.=5957), the remaining activity at 1.25 µM worked out at 102%. Further, in assay [2] (Well no.=5957), the remaining activity at 3.75 µM amounted to 105%.
In the case of `COc1cc(C(C)=O)cc(-c2cc(C(C)=O)cc(OC)c2O)c1O` [1,1'-(6,6'-dihydroxy-5,5'-dimethoxy-[1,1'-biphenyl]-3,3'-diyl)bis(ethan-1-one)], the remaining activity at 1.25 µM in assay [1] (Well no.=5981) came to 101%. The remaining activity at 3.75 µM in assay [2] (Well no.=5981) amounted to 96.6%.
On to `C[N+]1(C)CCN(c2ccccc2)CC1` [1,1-Dimethyl-4-phenyl-piperazinium iodide], for which, in assay [1] (Well no.=741), the remaining activity at 1.25 µM came to 92%. For the same molecule, in assay [2] (Well no.=741), the remaining activity at 3.75 µM amounted to 92.3%.
Take `CCCCCCCCCCCCCCCCCCOP(=O)([O-])OC1CC[N+](C)(C)CC1` [1,1-dimethylpiperidinium-4-yl octadecyl phosphate]: the remaining activity at 1.25 µM in assay [1] (Well no.=5460) worked out at 102%. Further, the remaining activity at 3.75 µM in assay [2] (Well no.=5460) was determined as 107%.
Take `BrC1C(Br)C(Br)C(Br)C(Br)C1Br` (centres unmarked) [1,2,3,4,5,6-Hexabromocyclohexane - 1,2,3,4,5,6-Hexabromocyclohexane]: the remaining activity at 1.25 µM in assay [1] (Well no.=2524) was found to be 96.3%. In assay [2] (Well no.=2524), the remaining activity at 3.75 µM is 97.7%.
As to `CCCCCCCCCC(=O)OCC(CO)OC(=O)CCCCCCCCC` (centres unmarked) [1,2-Didecanoyl-glycerol (10:0)], the remaining activity at 1.25 µM in assay [1] (Well no.=4474) turned out to be 101%. In addition, the remaining activity at 3.75 µM in assay [2] (Well no.=4474) came out at 95.2%.
Turning to `CCCCCCCC(=O)OC[C@H](CO)OC(=O)CCCCCCC` [1,2-Dioctanoyl-SN-glycerol], in assay [1] (Well no.=4476), the remaining activity at 1.25 µM turned out to be 103%. Further, in assay [2] (Well no.=4476), the remaining activity at 3.75 µM was 107%.
